Counter-ions that a name gives are not always drawn.
Biological target: human cloned 5-HT6 receptors (Homo sapiens, UniProt P50406)
Assay: Evaluation of 5-HT6 binding affinity of test compounds ([3H]-LSD displacement)

Sequence of human cloned 5-HT6 receptors (P50406 whole entry): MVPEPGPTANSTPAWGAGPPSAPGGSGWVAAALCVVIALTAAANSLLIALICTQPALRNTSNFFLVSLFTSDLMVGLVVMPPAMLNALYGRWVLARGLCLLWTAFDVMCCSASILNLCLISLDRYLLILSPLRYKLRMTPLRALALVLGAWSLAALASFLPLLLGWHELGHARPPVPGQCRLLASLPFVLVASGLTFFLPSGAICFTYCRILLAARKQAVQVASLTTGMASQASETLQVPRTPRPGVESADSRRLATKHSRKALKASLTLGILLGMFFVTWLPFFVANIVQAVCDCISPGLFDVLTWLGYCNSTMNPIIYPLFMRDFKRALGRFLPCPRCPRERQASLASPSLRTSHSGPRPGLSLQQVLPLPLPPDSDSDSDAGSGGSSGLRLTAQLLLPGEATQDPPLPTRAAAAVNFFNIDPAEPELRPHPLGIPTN

| SMILES | Ki [nM] |
| --- | --- |
| CCCCN1CCC(Oc2ccc3[nH]nc(S(=O)(=O)c4cccc5ccccc45)c3c2)C1 (centres unmarked) [Example 2, 5-(1-Butylpyrrolidin-3-yloxy)-3-(1-naphthylsulfonyl)-1H-indazole Hydrochloride] | 0.01 to 10 |
| CC(C)N1CCC(Oc2ccc3[nH]nc(S(=O)(=O)c4cccc5ccccc45)c3c2)C1 (centres unmarked) [Example 4, 5-(1-Isopropyl-pyrrolidin-3-yloxy)-3-(naphthalene-1-sulfonyl)-1H-indazole Hydrochloride] | 0.01 to 10 |
| CN1CCC(Oc2ccc3[nH]nc(S(=O)(=O)c4cccc5ccccc45)c3c2)C1 (centres unmarked) [Example 5, 5-(1-Methyl-pyrrolidin-3-yloxy)-3-(naphthalene-1-sulfonyl)-1H-indazole Hydrochloride] | 0.01 to 10 |
| O=S(=O)(c1cccc2ccccc12)c1n[nH]c2ccc(OC3CCNCC3)cc12 [Example 6, 3-(1-Naphthylsulfonyl)-5-(piperidin-4-yloxy)-1H-indazole Hydrochloride] | 0.01 to 10 |
| O=S(=O)(c1cccc(F)c1)c1n[nH]c2ccc(OC3CCNCC3)cc12 [Example 8, 3-[(3-fluorophenyl)sulfonyl]-5-(piperidin-4-yloxy)-1H-indazole] | 11 to 25 |
| O=S(=O)(c1ccccc1Cl)c1n[nH]c2ccc(OC3CCNCC3)cc12 [Example 9, 3-[(2-chlorophenyl)sulfonyl]-5-(piperidin-4-yloxy)-1H-indazole] | > 45 |
| O=S(=O)(c1cccc(Cl)c1)c1n[nH]c2ccc(OC3CCNCC3)cc12 [Example 10, 3-[(3-chlorophenyl)sulfonyl]-5-(piperidin-4-yloxy)-1H-indazole] | 0.01 to 10 |
| COc1cccc(S(=O)(=O)c2n[nH]c3ccc(OC4CCNCC4)cc23)c1 [Example 13, 3-[(3-methoxyphenyl)sulfonyl]-5-(piperidin-4-yloxy)-1H-indazole] | 0.01 to 10 |
| COc1ccc(S(=O)(=O)c2n[nH]c3ccc(OC4CCNCC4)cc23)cc1 [Example 14, 3-[(4-methoxyphenyl)sulfonyl]-5-(piperidin-4-yloxy)-1H-indazole] | > 45 |
| O=S(=O)(c1cccc(C(F)(F)F)c1)c1n[nH]c2ccc(OC3CCNCC3)cc12 [Example 15, 5-(piperidin-4-yloxy)-3-{[3-(trifluoromethyl)phenyl]sulfonyl}-1H-indazole] | 0.01 to 10 |
| O=S(=O)(c1ccc(C(F)(F)F)cc1)c1n[nH]c2ccc(OC3CCNCC3)cc12 [Example 16, 5-(piperidin-4-yloxy)-3-{[4-(trifluoromethyl)phenyl]sulfonyl}-1H-indazole] | 11 to 25 |
| Cc1ccc(S(=O)(=O)c2n[nH]c3ccc(OC4CCNCC4)cc23)c2ccccc12 [Example 18, 3-[(4-methyl-1-naphthyl)sulfonyl]-5-(piperidin-4-yloxy)-1H-indazole] | 0.01 to 10 |
| CCCCN1CCC(Oc2ccc3[nH]nc(S(=O)(=O)c4cccc5ccccc45)c3c2)CC1 [Example 20, 5-(1-Butylpiperidin-4-yloxy)-3-(1-naphthylsulfonyl)-1H-indazole Hydrochloride] | 0.01 to 10 |
| CC(C)N1CCC(Oc2ccc3[nH]nc(S(=O)(=O)c4cccc5ccccc45)c3c2)CC1 [Example 22, 5-(1-Isopropylpiperidin-4-yloxy)-3-(1-naphthylsulfonyl)-1H-indazole Hydrochloride] | 0.01 to 10 |
| CCN1CCC(Oc2ccc3[nH]nc(S(=O)(=O)c4cccc5ccccc45)c3c2)C1 (centres unmarked) [Example 25, 5-[1-(Ethylpyrrolidin-3-yl)oxy]-3-(1-napthylsulfonyl)-1H-indazole Hydrochloride] | 0.01 to 10 |
| O=S(=O)(c1cccc2ccccc12)c1n[nH]c2ccc(OC3CCN(CCc4ccccc4)C3)cc12 (centres unmarked) [Example 26, 3-(1-Naphthylsulfonyl)-5-{[1-(2-phenylethyl)pyrrolidin-3-yl]oxy}-1H-indazole Hydrochloride] | 11 to 25 |
| O=S(=O)(c1cccc2ccccc12)c1n[nH]c2ccc(NC3CCNCC3)cc12 [Example 30, [3-(1-Naphthylsulfonyl)-1H-indazol-5-yl]-piperidin-4-ylamine Dihydrochloride] | 0.01 to 10 |
| O=S(=O)(c1cccc2ccccc12)c1n[nH]c2ccc(NC3CCCNC3)cc12 (centres unmarked) [Example 32, 3-(1-Naphthylsulfonyl)-N-piperidin-3-yl-1H-indazol-5-amine Dihydrochloride] | 0.01 to 10 |
| O=S(=O)(c1cccc2ccccc12)c1n[nH]c2cc(NC3CCNCC3)ccc12 [Example 33, 3-(1-Naphthylsulfonyl)-N-piperidin-4-yl-1H-indazol-6-amine Dihydrochloride] | > 45 |
| O=S(=O)(c1cccc2ccccc12)c1n[nH]c2cc(NC3CCCNC3)ccc12 (centres unmarked) [Example 34, 3-(1-Naphthylsulfonyl)-N-piperidin-3-yl-1H-indazol-6-amine Dihydrochloride] | > 45 |
| O=S(=O)(c1cccc2ccccc12)c1n[nH]c2cc(NCC3CCNCC3)ccc12 [Example 35, 3-(1-Naphthylsulfonyl)-N-(piperidin-4-ylmethyl)-1H-indazol-6-amine Dihydrochloride] | 36 to 45 |
| O=S(=O)(c1cccc2ccccc12)c1n[nH]c2c(NC3CCNCC3)cccc12 [Example 36, 3-(1-Naphthylsulfonyl)-N-piperidin-4-yl-1H-indazol-7-amine Dihydrochloride] | 26 to 35 |
| O=S(=O)(c1cccc2ccccc12)c1n[nH]c2c(NCC3CCNCC3)cccc12 [Example 38, 3-(1-Naphthylsulfonyl)-N-(piperidin-4-ylmethyl)-1H-indazol-7-amine Dihydrochloride] | 11 to 25 |
| O=S(=O)(c1cccc(Cl)c1)c1n[nH]c2ccc(NC3CCNCC3)cc12 [Example 42, 3-[(3-chlorophenyl)sulfonyl]-N-piperidin-4-yl-1H-indazol-5-amine] | 0.01 to 10 |
| O=S(=O)(c1ccc(Cl)cc1)c1n[nH]c2ccc(NC3CCNCC3)cc12 [Example 43, 3-[(4-chlorophenyl)sulfonyl]-N-piperidin-4-yl-1H-indazol-5-amine] | 0.01 to 10 |
| O=S(=O)(c1ccc2ccccc2c1)c1n[nH]c2ccc(NC3CCNCC3)cc12 [Example 44, 3-(2-naphthylsulfonyl)-N-piperidin-4-yl-1H-indazol-5-amine] | 0.01 to 10 |
| O=S(=O)(c1cccc(F)c1)c1n[nH]c2ccc(NC3CCNCC3)cc12 [Example 45, 3-[(3-fluorophenyl)sulfonyl]-N-piperidin-4-yl-1H-indazol-5-amine] | 0.01 to 10 |
| O=S(=O)(c1ccc(F)cc1)c1n[nH]c2ccc(NC3CCNCC3)cc12 [Example 46, 3-[(4-fluorophenyl)sulfonyl]-N-piperidin-4-yl-1H-indazol-5-amine] | 0.01 to 10 |

Results, then the compound that gave them:

| Ki [nM] | SMILES |
| --- | --- |
| 0.01 to 10 | O=S(=O)(c1cccc2ccccc12)c1n[nH]c2ccc(OC3CCNC3)cc12 (centres unmarked) [Example 1, 3-(Naphthalene-1-sulfonyl)-5-(pyrrolidin-3-yloxy)-1H-indazole] |
| 0.01 to 10 | CCCN1CCC(Oc2ccc3[nH]nc(S(=O)(=O)c4cccc5ccccc45)c3c2)C1 (centres unmarked) [Example 3, 3-(Naphthalene-1-sulfonyl)-5-(1-propyl-pyrrolidin-3-yloxy)-1H-indazole Hydrochloride] |
| 11 to 25 | O=S(=O)(c1ccccc1)c1n[nH]c2ccc(OC3CCNCC3)cc12 [Example 7, 3-(phenylsulfonyl)-5-(piperidin-4-yloxy)-1H-indazole] |
| 11 to 25 | O=S(=O)(c1ccc(Cl)cc1)c1n[nH]c2ccc(OC3CCNCC3)cc12 [Example 11, 3-[(4-chlorophenyl)sulfonyl]-5-(piperidin-4-yloxy)-1H-indazole] |
| 0.01 to 10 | Cc1cccc(S(=O)(=O)c2n[nH]c3ccc(OC4CCNCC4)cc23)c1 [Example 12, 3-[(3-methylphenyl)sulfonyl]-5-(piperidin-4-yloxy)-1H-indazole] |
| 11 to 25 | CC(C)c1ccc(S(=O)(=O)c2n[nH]c3ccc(OC4CCNCC4)cc23)cc1 [Example 17, 3-[(4-isopropylphenyl)sulfonyl]-5-(piperidin-4-yloxy)-1H-indazole] |
| 0.01 to 10 | CCCN1CCC(Oc2ccc3[nH]nc(S(=O)(=O)c4cccc5ccccc45)c3c2)CC1 [Example 19, 3-(1-Naphthylsulfonyl)-5-(1-propylpiperidin-4-yloxy)-1H-indazole Hydrochloride] |
| 0.01 to 10 | CN1CCC(Oc2ccc3[nH]nc(S(=O)(=O)c4cccc5ccccc45)c3c2)CC1 [Example 21, 5-(1-Methylpiperidin-4-yloxy)-3-(1-naphthylsulfonyl)-1H-indazole Hydrochloride] |
| 11 to 25 | O=S(=O)(c1cccc2ccccc12)c1n[nH]c2ccc(OC3CCN(CCc4ccccc4)CC3)cc12 [Example 23, 3-(1-Naphthylsulfonyl)-5-{[1-(2-phenylethyl)piperidin-4-yl]oxy}-1H-indazole Hydrochloride] |
| 0.01 to 10 | CCN1CCC(Oc2ccc3[nH]nc(S(=O)(=O)c4cccc5ccccc45)c3c2)CC1 [Example 24, 5-[1-(Ethylpiperidin-4-yl)oxy]-3-(1-naphthylsulfonyl)-1H-indazole Hydrochloride] |
| 0.01 to 10 | O=S(=O)(c1cccc2ccccc12)c1n[nH]c2ccc(NCC3CCNCC3)cc12 [Example 31, 3-(1-Naphthylsulfonyl)-N-(piperidin-4-ylmethyl)-1H-indazol-5-amine Dihydrochloride] |
| > 45 | O=S(=O)(c1cccc2ccccc12)c1n[nH]c2c(NC3CCCNC3)cccc12 (centres unmarked) [Example 37, 3-(1-Naphthylsulfonyl)-N-piperidin-3-yl-1H-indazol-7-amine Dihydrochloride] |
| 0.01 to 10 | O=S(=O)(c1cccc2ccccc12)c1n[nH]c2cccc(NC3CCNCC3)c12 [Example 39, 3-(1-Naphthylsulfonyl)-N-piperidin-4-yl-1H-indazol-4-amine Dihydrochloride] |
| 0.01 to 10 | O=S(=O)(c1cccc2ccccc12)c1n[nH]c2cccc(NC3CCCNC3)c12 (centres unmarked) [Example 40, 3-(1-Naphthylsulfonyl)-N-piperidin-3-yl-1H-indazol-4-amine Dihydrochloride] |
| 0.01 to 10 | O=S(=O)(c1cccc2ccccc12)c1n[nH]c2cccc(NCC3CCNCC3)c12 [Example 41, 3-(1-Naphthylsulfonyl)-N-(piperidin-4-ylmethyl)-1H-indazol-4-amine Dihydrochloride] |
| 0.01 to 10 | CC(C)c1ccc(S(=O)(=O)c2n[nH]c3ccc(NC4CCNCC4)cc23)cc1 [Example 47, 3-[(4-isopropylphenyl)sulfonyl]-N-piperidin-4-yl-1H-indazol-5-amine] |

From US7790751B2, “Azinyl-3-sulfonylindazole derivatives as 5-hydroxytryptamine-6 ligands” (Wyeth LLC, priority 2005, dated 2010)
